According to patent publication US20110263649A1, “CRYSTALLINE FORM OF LENALIDOMIDE AND A PROCESS FOR ITS PREPARATION” (GENERICS [UK] LIMITED, priority 2008, published 2011):
Like-named read-outs stand apart in the source and are kept apart here.

Key:
[1] = as disclosed in WO 2005/023192; cited from earlier work
[2] = aqueous solubility of lenalidomide crystalline forms; conditions: forms prepared and tested by the inventors
[3] = as indicated in WO 2005/023192; cited from earlier work

SMILES	weight loss upon storage [1]	aqueous solubility [2]	aqueous solubility [3]
Nc1cccc2c1CN(C1CCC(=O)NC1=O)C2=O (stereo not shown) [form E, lenalidomide]	the greatest weight loss upon storage		
Nc1cccc2c1CN(C1CCC(=O)NC1=O)C2=O (stereo not shown) [novel crystalline form, 3-(4-amino-1-oxo-1,3-dihydro-isoindol-2-yl)-piperidine-2,6-dione]		High solubility in aqueous medium	
Nc1cccc2c1CN(C1CCC(=O)NC1=O)C2=O (stereo not shown) [polymorphic mixture, lenalidomide]		poor aqueous solubility	poorly soluble in water
